Species on record: Rattus norvegicus
Test: DrugMatrix - Regimen: Daily Repeat
Assay type: toxicity, organism-based, Sprague-Dawley
Parameters: regimen Daily Repeat, gender Male, age 6-8 weeks
Details: in vivo, po, route oral GAVAGE, vehicle .5 % CMC; for ABSOLUTE BASOPHIL / ABSOLUTE EOSINOPHIL / ABSOLUTE LYMPHOCYTE / ABSOLUTE MONOCYTE / ABSOLUTE SEGMENTED NEUTROPHIL / BASOPHIL / EOSINOPHIL / ERYTHROCYTE COUNT / HEMATOCRIT / HEMOGLOBIN / LEUKOCYTE COUNT / LYMPHOCYTE / MEAN CORPUSCULAR HEMOGLOBIN / MEAN CORPUSCULAR HEMOGLOBIN CONCENTRATION / MEAN CORPUSCULAR VOLUME / MONOCYTE / NEUTROPHIL / NUCLEATED RED BLOOD CELLS / PLATELET COUNT: tissue Blood; for ALANINE AMINOTRANSFERASE / ALBUMIN / ALKALINE PHOSPHATASE / ASPARTATE AMINOTRANSFERASE / BLOOD UREA NITROGEN / CARBON DIOXIDE / CHLORIDE / CHOLESTEROL / CREATINE PHOSPHOKINASE / CREATININE / GLUCOSE / LACTATE DEHYDROGENASE / LIPASE / PHOSPHORUS / POTASSIUM / SODIUM / TOTAL BILIRUBIN / TOTAL PROTEIN / URIC ACID: tissue Plasma
[1] = 55 mg/kg, 120 h, dose level Low, time 5 day
[2] = 1000 mg/kg, 72 h, dose level High, time 3 day
[3] = 1000 mg/kg, 120 h, dose level High, time 5 day

Structure (SMILES): CCN1CCCC1CNC(=O)c1cc(S(N)(=O)=O)ccc1OC (centres undefined) [SULPIRIDE]
- ABSOLUTE BASOPHIL [1]: 0 CELLS/uL
- ABSOLUTE EOSINOPHIL [1]: 0 CELLS/uL
- ABSOLUTE LYMPHOCYTE [1]: 14792 CELLS/uL
- ABSOLUTE MONOCYTE [1]: 54.33 CELLS/uL
- ABSOLUTE SEGMENTED NEUTROPHIL [1]: 2187 CELLS/uL
- BASOPHIL [1]: 0%
- EOSINOPHIL [1]: 0%
- ERYTHROCYTE COUNT [1]: 5.47 x10E6/uL
- HEMATOCRIT [1]: 34.67%
- HEMOGLOBIN [1]: 13.83 G/DL
- LEUKOCYTE COUNT [1]: 17.03 x10E3/uL
- LYMPHOCYTE [1]: 86%
- MEAN CORPUSCULAR HEMOGLOBIN [1]: 25.3 pg
- MEAN CORPUSCULAR HEMOGLOBIN CONCENTRATION [1]: 39.93 G/DL
- MEAN CORPUSCULAR VOLUME [1]: 63.4 fL
- MONOCYTE [1]: 0.33%
- NEUTROPHIL [1]: 13.67%
- NUCLEATED RED BLOOD CELLS [1]: 0 /100WBC
- PLATELET COUNT [1]: 1253.33 x10E3/uL
- ALANINE AMINOTRANSFERASE [1]: 50.67 u/L
- ALBUMIN [1]: 4.43 G/DL
- ALKALINE PHOSPHATASE [1]: 322.67 u/L
- ASPARTATE AMINOTRANSFERASE [1]: 90 u/L
- BLOOD UREA NITROGEN [1]: 16 mg/dL
- CARBON DIOXIDE [1]: 28 mmol/L
- CHLORIDE [1]: 102 MEQ/L
- CHOLESTEROL [1]: 86.33 mg/dL
- CREATINE PHOSPHOKINASE [1]: 434.67 u/L
- CREATININE [1]: 0.2 mg/dL
- GLUCOSE [1]: 160.33 mg/dL
- LACTATE DEHYDROGENASE [1]: 149 u/L
- LIPASE [1]: 9 u/L
- PHOSPHORUS [1]: 13 mg/dL
- POTASSIUM [1]: 6.98 MEQ/L
- SODIUM [1]: 147.83 MEQ/L
- TOTAL BILIRUBIN [1]: 0.2 mg/dL
- TOTAL PROTEIN [1]: 6.2 G/DL
- URIC ACID [1]: 1.9 mg/dL
- ABSOLUTE BASOPHIL [2]: 0 CELLS/uL
- ABSOLUTE EOSINOPHIL [2]: 50.67 CELLS/uL
- ABSOLUTE LYMPHOCYTE [2]: 15013.67 CELLS/uL
- ABSOLUTE MONOCYTE [2]: 0 CELLS/uL
- ABSOLUTE SEGMENTED NEUTROPHIL [2]: 1202.33 CELLS/uL
- BASOPHIL [2]: 0%
- EOSINOPHIL [2]: 0.33%
- ERYTHROCYTE COUNT [2]: 5.92 x10E6/uL
- HEMATOCRIT [2]: 38.13%
- HEMOGLOBIN [2]: 15.07 G/DL
- LEUKOCYTE COUNT [2]: 16.27 x10E3/uL
- LYMPHOCYTE [2]: 92%
- MEAN CORPUSCULAR HEMOGLOBIN [2]: 25.5 pg
- MEAN CORPUSCULAR HEMOGLOBIN CONCENTRATION [2]: 39.53 G/DL
- MEAN CORPUSCULAR VOLUME [2]: 64.5 fL
- MONOCYTE [2]: 0%
- NEUTROPHIL [2]: 7.67%
- NUCLEATED RED BLOOD CELLS [2]: 0 /100WBC
- PLATELET COUNT [2]: 1327 x10E3/uL
- ALANINE AMINOTRANSFERASE [2]: 52.33 u/L
- ALBUMIN [2]: 4.53 G/DL
- ALKALINE PHOSPHATASE [2]: 415 u/L
- ASPARTATE AMINOTRANSFERASE [2]: 78.33 u/L
- BLOOD UREA NITROGEN [2]: 16.67 mg/dL
- CARBON DIOXIDE [2]: 29.33 mmol/L
- CHLORIDE [2]: 102.67 MEQ/L
- CHOLESTEROL [2]: 85 mg/dL
- CREATINE PHOSPHOKINASE [2]: 227.33 u/L
- CREATININE [2]: 0.21 mg/dL
- GLUCOSE [2]: 146 mg/dL
- LACTATE DEHYDROGENASE [2]: 310 u/L
- LIPASE [2]: 9.33 u/L
- PHOSPHORUS [2]: 14.17 mg/dL
- POTASSIUM [2]: 7.01 MEQ/L
- SODIUM [2]: 147.37 MEQ/L
- TOTAL BILIRUBIN [2]: 0.2 mg/dL
- TOTAL PROTEIN [2]: 6.33 G/DL
- URIC ACID [2]: 1.47 mg/dL
- ABSOLUTE BASOPHIL [3]: 0 CELLS/uL
- ABSOLUTE EOSINOPHIL [3]: 69.67 CELLS/uL
- ABSOLUTE LYMPHOCYTE [3]: 10948.67 CELLS/uL
- ABSOLUTE MONOCYTE [3]: 52.33 CELLS/uL
- ABSOLUTE SEGMENTED NEUTROPHIL [3]: 1129.33 CELLS/uL
- BASOPHIL [3]: 0%
- EOSINOPHIL [3]: 0.67%
- ERYTHROCYTE COUNT [3]: 5.48 x10E6/uL
- HEMATOCRIT [3]: 36.03%
- HEMOGLOBIN [3]: 14.33 G/DL
- LEUKOCYTE COUNT [3]: 12.2 x10E3/uL
- LYMPHOCYTE [3]: 89.67%
- MEAN CORPUSCULAR HEMOGLOBIN [3]: 26.17 pg
- MEAN CORPUSCULAR HEMOGLOBIN CONCENTRATION [3]: 39.77 G/DL
- MEAN CORPUSCULAR VOLUME [3]: 65.8 fL
- MONOCYTE [3]: 0.33%
- NEUTROPHIL [3]: 9.33%
- NUCLEATED RED BLOOD CELLS [3]: 0.33 /100WBC
- PLATELET COUNT [3]: 1145.33 x10E3/uL
- ALANINE AMINOTRANSFERASE [3]: 56.33 u/L
- ALBUMIN [3]: 4.6 G/DL
- ALKALINE PHOSPHATASE [3]: 436.67 u/L
- ASPARTATE AMINOTRANSFERASE [3]: 86 u/L
- BLOOD UREA NITROGEN [3]: 17.67 mg/dL
- CARBON DIOXIDE [3]: 26.33 mmol/L
- CHLORIDE [3]: 99.33 MEQ/L
- CHOLESTEROL [3]: 77 mg/dL
- CREATINE PHOSPHOKINASE [3]: 198 u/L
- CREATININE [3]: 0.18 mg/dL
- GLUCOSE [3]: 150.67 mg/dL
- LACTATE DEHYDROGENASE [3]: 162 u/L
- LIPASE [3]: 13.33 u/L
- PHOSPHORUS [3]: 14.83 mg/dL
- POTASSIUM [3]: 7.2 MEQ/L
- SODIUM [3]: 147.4 MEQ/L
- TOTAL BILIRUBIN [3]: 0.2 mg/dL
- TOTAL PROTEIN [3]: 6.37 G/DL
- URIC ACID [3]: 1.9 mg/dL
